# Test: Clearance of ionizable lipid from the mouse lung following chamber nebulization of mRNA LNP (LC-MS)
# Assay type: in vivo
# Protocol: On the day of dosing the LNP formulations were diluted to 1.2 mg/mL with PBS and 1.25 mL (1.5 mg dose) of these solutions are placed in Aerogen Solo nebulizer units which sit in a housing attached to a mouse chamber of dimensions 9″×4″×5″ (1×w×h) with a carbon filter attached. Six (6) Balb/C mice are dosed in the chamber at a time. An airflow of 1.5 L/min was forced through the nebulizer housing unit and the nebulizer turned on. During nebulization, some of the LNP condensed from the nebulizer and was collected and passed back through the nebulizer. This continued until no condensate was collected. Upon nebulization to dryness, the mice remained in the chamber for an extra 1-2 min until the LNP vapor dissipated. Complete nebulization of the LNP typically took ˜15 min. At each time points of 0.25 h (immediately after nebulization), 1 h, 6 h and 24 h, three (3) animals per formulation were euthanized with a lethal dosage of ketamine/xylazine and the lungs were excised and cut into ˜100 mg sections. These were placed in FastPrep tubes, fast frozen in liquid N2, and stored at […] until LC-MS analysis.
# To the lung sections were added 5 volumes of PBS (e.g. to 50 mg of lung added 250 μL of PBS). These were then homogenized in a FastPrep instrument using 3 cycles of 15 sec each, with a speed of 5.0 m/s and were centrifuged at low speed. Spiked lung homogenate standards were prepared for each cationic lipid (103, 101 and 102) using the lung homogenates of mice dosed with PBS. For each cationic lipid, 10 standards were prepared: the highest standard at a concentration of 12,500 ng/mL with serial dilution by ½ down to 24.4 ng/mL. 20 μL of the homogenates (samples and standards) was added to 225 μL of ISS (IPA containing 100 ng/mL 1-B11 internal standard) in 96-well plates. The plates were mixed by pipetting up and down and were centrifuged at 2500 rpm for 15 min. The supernatant from these extractions were analyzed by LC-MS. By comparing the signal obtained for each sample to the appropriate standard curves for each cationic lipid (103, 101 and 102), the ng/mL of cationic lipid in each homogenate was determined. These values were then normalized to the exact mass of lung tissue that was analyzed. For the Non-biodegradable cationic lipid, the resulting average (n=3) ng 103/g of lung values were plotted without any further manipulation. For the Hydrolyzable cationic lipid, the ng/g of lung values at each time point for both 101 and 102 were combined to give the average (n=3) ng cationic lipid/g of lung values.
# [1] = 24 h post administration, nebulized mRNA LNP, mice
Structure (SMILES),"fate of the lipid in the lungs by 24 h, in words [1]","% Cationic Lipid Remaining (Balb/C, mouse, in vivo) [%]","% Cationic Lipid Remaining (Balb/C, mouse, in vivo, 1 h) [%]","% Cationic Lipid Remaining (Balb/C, mouse, in vivo, 6 h) [%]","% Cationic Lipid Remaining (Balb/C, mouse, in vivo, 24 h) [%]","fate of the lipid in the lungs by 24 h, in words (Balb/C, mouse, in vivo, 24 h)"
CCCCC/C=C\CCCO[Si](CCCCN(C)C)(OCCC/C=C\CCCCC)OCCC/C=C\CCCCC [Example 101],close to complete lipid hydrolysis,,,,,
CCCCC/C=C\CCCC(CCC/C=C\CCCCC)C(CCC/C=C\CCCCC)OC(=O)CCCCN(C)C (stereo not shown) [Example 103],,100,120,90,94,remained in the lungs for the complete 24 h
CCCCC/C=C\CCCO[Si](CCCCN(C)CCO)(OCCC/C=C\CCCCC)OCCC/C=C\CCCCC [Example 102],close to complete lipid hydrolysis,,,,,

# From patent US20240065982A1 (priority 2020, published 2024)
